Reference: article PMC6332508, “A Promising PET Tracer for Imaging of α7 Nicotinic Acetylcholine Receptors in the Brain: Design, Synthesis, and in Vivo Evaluation of a Dibenzothiophene-Based Radioligand” (Molecules, 2015)
“And” between values parts separate entries of the source, which are not always exact repeats. Equal entries are not always repeated.

System: α7 nAChR
Assay: Dynamic PET studies in piglets with kinetic modelling (2TCM)
Type: in vivo
Design: clearance rate constant k2, mean: unit not given here
Conditions: for VND / BPND / Rate Constant K1 / Rate Constant k2 / Rate Constant k3 / Rate Constant k4: piglet brain, 240 min scan data, n = 3; for total volume of distribution VT: piglet, K1/k2(1 + k3/k4)
Method: One-tissue and two-tissue compartment models (1TCM and 2TCM) were evaluated for mathematical description of [^18F]10a time-activity curves (TACs) in pig brain regions (Figure 3) using metabolite-corrected arterial plasma input functions. The 2TCM was identified as the more appropriate model based on its smaller Akaike information criterion (AIC) value. The four rate constants K1, k2, k3, and k4 were fitted and the non-displaceable volume of distribution (VND = K1/k2) and the binding potential (BPND = k3/k4) as defined by Innis et al. were calculated for each region of interest (Table 3 and Table 4).
Six female animals were used in this study with anesthesia and surgery performed as described previously. In brief, the animals received initially a premedication with midazolam (1 mg∙kg^−1 i.m.) followed by induction of anesthesia with 3% isoflurane in 70% N2O/30% O2. All incision sites were infiltrated with 1% lidocaine, and the anesthesia was maintained with 1.5% isoflurane throughout the surgical procedure. A central venous catheter was introduced through the left external jugular vein and used for the administration of the radiotracer and drugs, and for volume substitution with heparinized (50 IE∙mL^−1) lactated Ringer’s solution (2 mL∙kg^−1∙h^−1). An endotracheal tube was inserted by tracheotomy for artificial ventilation (Servo Ventilator 900C, Siemens-Elema, Solna, Sweden) after immobilization with pancuronium bromide (0.2 mg∙kg^−1∙h^−1). The artificial ventilation was adjusted to obtain normoxia and normocapnia (Radiometer ABL 500, Copenhagen, Denmark). Polyurethane catheters (i.d., 0.5 mm) were advanced through the left and the right femoral arteries into the abdominal aorta to withdraw arterial blood samples for regular monitoring of blood gases and for radiotracer input function measurements and metabolite analyses. The body temperature was monitored by a rectal temperature probe and maintained at ~38 °C by a heating pad. After the surgical procedure has been completed, anesthesia was maintained with 0.5% isoflurane in 70% N2O/30% O2, and the animals were allowed to stabilize for 1 h before imaging procedure.
PET imaging was performed according to the protocol described recently. In brief, a clinical tomograph (ECAT Exact HR+; Siemens Healthcare GmbH, Erlangen, Germany) was used with animals lying prone with the head placed in a custom-made head holder. For attenuation and scatter correction, transmission scans were acquired using three rotating ^68Ge rod sources. The radiotracer was injected as an intravenous (i.v.) bolus (10 mL saline with 340–494 MBq [^18F]10a) by a syringe pump within 2 min followed by flushing with 10 mL heparinized saline (50 IE∙mL^−1). PET scanning started at the time of injection (0 min) and dynamic emission data were acquired for a total of 240 min. Three animals were investigated under baseline conditions, and another three under blocking conditions with administration of 3 mg∙kg^−1 i.v. of the α7 nAChR partial agonist NS6740 at 3 min before radiotracer injection followed by a continuous infusion throughout the scan (1 mg∙kg^−1∙h^−1).
Arterial blood was sampled using a peristaltic pump during the first 20 min of the scan followed by manual sampling at 25, 30, 40, 50, 60, 90, 120, 150, 180, 210, and 240 min after injection. Plasma was obtained by centrifugation (13,000 rpm, 2 min at 21 °C) and total radioactivity concentration was measured using a gamma-counter (1470 Wizard; PerkinElmer, Shelton, CT, USA) cross-calibrated to the PET scanner. In addition, arterial whole blood was sampled manually at 4, 16, 30, 60, and 120 min p.i. and plasma obtained for metabolite analyses to determine the fraction of non-metabolized [^18F]10a.
The plasma input function was corrected for the presence of radioactive metabolites by determination of the parent fraction as described previously. […]

[1] = Occipital Cortex, blocking (NS6740)
[2] = Parietal Cortex, blocking (NS6740)

## O=S1(=O)c2ccc([18F])cc2-c2ccc(N3CCN4CCC3CC4)cc21 [[^18F]10a]
Occipital Cortex, baseline
  VND: 4.07 ± 2.23
[1]
  BPND: 0.95 ± 1.03
  Rate Constant K1: 0.668 ± 0.103 mL·cm^−3·min^−1
  Rate Constant k2: 0.064 ± 0.019 min⁻¹
  Rate Constant k3: 0.022 ± 0.032 min⁻¹
  Rate Constant k4: 0.013 ± 0.023 min⁻¹
  VND: 11.36 ± 4.41
Parietal Cortex, baseline
  BPND: 3.47 ± 1.65
  Rate Constant K1: 0.399 ± 0.038 mL·cm^−3·min^−1
  Rate Constant k2: 0.140 ± 0.089 min⁻¹
  Rate Constant k3: 0.126 ± 0.135 min⁻¹
  Rate Constant k4: 0.031 ± 0.021 min⁻¹
  VND: 3.88 ± 2.49
[2]
  BPND: 0.82 ± 0.88
  Rate Constant K1: 0.659 ± 0.120 mL·cm^−3·min^−1
  Rate Constant k2: 0.055 ± 0.013 min⁻¹
  Rate Constant k3: 0.015 ± 0.020 min⁻¹
  Rate Constant k4: 0.011 ± 0.021 min⁻¹
  VND: 12.58 ± 4.52
Pons, baseline
  BPND: 2.76 ± 0.81
  Rate Constant K1: 0.440 ± 0.045 mL·cm^−3·min^−1
  Rate Constant k2: 0.149 ± 0.059 min⁻¹
  Rate Constant k3: 0.068 ± 0.042 min⁻¹
  Rate Constant k4: 0.026 ± 0.019 min⁻¹
  VND: 3.32 ± 1.40
Pons, blocking (NS6740)
  BPND: 0.76 ± 1.16
  Rate Constant K1: 0.670 ± 0.092 mL·cm^−3·min^−1
  Rate Constant k2: 0.084 ± 0.030 min⁻¹
  Rate Constant k3: 0.019 ± 0.023 min⁻¹
  Rate Constant k4: 0.012 ± 0.016 min⁻¹
  VND: 8.93 ± 3.96
Striatum, baseline
  BPND: 3.98 ± 1.40
  Rate Constant K1: 0.382 ± 0.028 mL·cm^−3·min^−1
  Rate Constant k2: 0.144 ± 0.079 min⁻¹
  Rate Constant k3: 0.114 ± 0.093 min⁻¹
  Rate Constant k4: 0.027 ± 0.014 min⁻¹
  VND: 3.35 ± 1.81
Striatum, blocking (NS6740)
  BPND: 0.75 ± 1.29
  Rate Constant K1: 0.624 ± 0.143 mL·cm^−3·min^−1
  Rate Constant k2: 0.057 ± 0.015 min⁻¹
  Rate Constant k3: 0.020 ± 0.025 min⁻¹
  Rate Constant k4: 0.011 ± 0.017 min⁻¹
  VND: 11.78 ± 4.91
Thalamus, baseline
  BPND: 3.51 ± 1.13
  Rate Constant K1: 0.448 ± 0.027 mL·cm^−3·min^−1
  Rate Constant k2: 0.150 ± 0.071 min⁻¹
  Rate Constant k3: 0.111 ± 0.085 min⁻¹
  Rate Constant k4: 0.030 ± 0.018 min⁻¹
  VND: 3.67 ± 2.10
Thalamus, blocking (NS6740)
  BPND: 0.88 ± 1.00
  Rate Constant K1: 0.762 ± 0.129 mL·cm^−3·min^−1
  Rate Constant k2: 0.070 ± 0.025 min⁻¹
  Rate Constant k3: 0.023 ± 0.031 min⁻¹
  Rate Constant k4: 0.012 ± 0.021 min⁻¹
  VND: 12.09 ± 5.31
Whole, baseline
  BPND: 3.31 ± 1.02
  Rate Constant K1: 0.362 mL·cm^−3·min^−1 and 0.362 ± 0.038 mL·cm^−3·min^−1
  Rate Constant k2: 0.131 ± 0.062 min⁻¹
  Rate Constant k3: 0.093 ± 0.074 min⁻¹
  Rate Constant k4: 0.027 ± 0.018 min⁻¹
  VND: 3.32 ± 1.74
Whole, blocking (NS6740)
  BPND: 0.84 ± 1.07
  Rate Constant K1: 0.598 ± 0.108 mL·cm^−3·min^−1
  Rate Constant k2: 0.062 ± 0.015 min⁻¹
  Rate Constant k3: 0.018 ± 0.022 min⁻¹
  Rate Constant k4: 0.011 ± 0.018 min⁻¹
  VND: 10.27 ± 3.94
cerebellum, baseline
  total volume of distribution VT: 13 mL∙cm^−3
thalamus, baseline
  total volume of distribution VT: 17 mL∙cm^−3
Whole brain, baseline
  clearance rate constant k2, mean: 0.131
